{
  "source": "patent US20110288036A1",
  "about": "“Methods for Treating or Preventing Vascular Graft Failure” (priority 2010, published 2011)",
  "key": {"[1]": {"test_system": "mouse lung endothelial cells (MLEC)", "assay": "MCP-1 immunoassay of MLEC conditioned medium", "format": "cell-based", "details": "even at high doses", "procedure": "Monocyte Chemotractic Protein-1 (MCP-1) production from mouse lung endothelial cells (MLEC) was analyzed using conditioned culture medium by Quantikine® Mouse CCL/JE/MCP-1 Immunoassay (R&D Systems) following the manufacturer's instructions. Briefly, the assay employs a quantitative sandwich enzyme immunoassay technique in which a monoclonal antibody specific for MCP-1 has been pre-coated onto a microplaste. Standards and samples are pipetted into the wells and any MCP-1 present is bound by the immobilized antibody. After washing away any unbound substances, an enzyme-linked polyclonal antibody specific for MCP-1 is added to the wells. Following a wash to remove any unbound antibody-enzyme reagent, a substrate solution is added to the wells and color develops in proportion to the amount of MCP-1 bound in the initial step. The color development is stopped and the intensity of the color is measured at 450 nm, with wavelength correction at 540 nm or 570 nm."}, "[2]": {"test_system": "mouse lung endothelial cells (MLEC)", "assay": "Murine endothelial cell apoptosis, annexin V flow cytometry", "format": "cell-based", "details": "24 hours; any dose", "procedure": "The apoptotic effect of MMI-0100 ([…]; SEQ ID NO: 1) on mouse lung endothelial cells (MLEC) was measured at 24 hours after MMI-0100 ([…]; SEQ ID NO: 1) treatment. MLEC were removed from the tissue culture plate by trypsin, and re-suspended at a concentration of 1.0×10^6 cells/ml. Apoptotic cells were detected by AlexaFluor® 488 annexin V/Dead Cell Apoptosis Kit (Invitrogen) using flow cytometry sorting analysis."}, "[3]": {"test_system": "human endothelial cell (EC)", "assay": "Phase contrast morphology, endothelial cells", "format": "cell-based", "details": "24 hours treatment, vs control cells", "procedure": "In order to determine the effect of pharmacological doses of MMI-0100 ([…]; SEQ ID NO: 1) on human endothelial cell (EC) and smooth muscle cell (SMC) proliferation, human EC and SMC cultures were treated with three concentrations (0.25 mM, 0.5 mM, and 1 mM) of MMI-0100 ([…] (SEQ ID NO: 1)) following pre-treatment with TNF-α."}, "MKK4": {"target": "T1, MKK4 (Mus musculus, UniProt P47809)", "T1 construct": "purchased Millipore (KinaseProfiler service)", "T1 sequence (P47809 whole entry)": "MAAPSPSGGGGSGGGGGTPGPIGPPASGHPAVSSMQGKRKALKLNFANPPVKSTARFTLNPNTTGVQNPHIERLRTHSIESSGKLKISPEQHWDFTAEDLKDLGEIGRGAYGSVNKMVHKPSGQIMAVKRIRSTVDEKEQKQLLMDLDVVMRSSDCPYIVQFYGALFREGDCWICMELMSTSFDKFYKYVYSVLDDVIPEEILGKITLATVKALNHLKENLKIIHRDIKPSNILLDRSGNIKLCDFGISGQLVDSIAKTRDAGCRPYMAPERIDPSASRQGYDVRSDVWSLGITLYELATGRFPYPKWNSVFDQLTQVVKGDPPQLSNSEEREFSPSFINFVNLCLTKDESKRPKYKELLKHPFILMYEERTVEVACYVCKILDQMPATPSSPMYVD", "assay": "MKK4 radiometric kinase assay", "format": "biochemical", "details": "peptide 100 μM", "description": "(§1) A commercial radiometric assay service was used to test the specificity and potency of MMI-0100 ([…]; SEQ ID NO: 1) by measuring its half maximal inhibitory concentrations (IC50). This quantitative assay measures how much MK2 inhibitor (MMI-0100; […] (SEQ ID NO: 1)) is needed to inhibit 50% of a given biological process or component of a process (i.e., an enzyme, cell, or cell receptor). Specifically, in these assays, a positively charged substrate is phosphorylated with a radiolabeled phosphate group from an ATP if the kinase is not inhibited by an inhibitor peptide. The positively charged substrate then is attracted to a negatively charged filter membrane, quantified with a scintillation counter, and compared to a 100% activity control. ATP concentrations within 15 μM of the apparent Km for ATP were chosen since an ATP concentration near the Km may allow for the kinases to have the same relative amount of phosphorylation activity. The individual conditions for each radiometric assay are as follows.\nThe reaction was initiated by the addition of the MgATP. After incubation for 40 minutes at room temperature, 5 μl of the incubation mix was used to initiate the JNK radiometric assay described above.\n(§2) IC50 values for inhibitor peptides were determined using Millipore's IC50 Profiler Express service. The IC50 value was estimated from a 10-point curve of one-half log dilutions. […]"}, "MK2": {"target": "T2, MK2 (Homo sapiens, UniProt P49137)", "T2 construct": "purchased Millipore (IC50 Profiler Express / KinaseProfiler service)", "T2 sequence (P49137 whole entry, species assumed)": "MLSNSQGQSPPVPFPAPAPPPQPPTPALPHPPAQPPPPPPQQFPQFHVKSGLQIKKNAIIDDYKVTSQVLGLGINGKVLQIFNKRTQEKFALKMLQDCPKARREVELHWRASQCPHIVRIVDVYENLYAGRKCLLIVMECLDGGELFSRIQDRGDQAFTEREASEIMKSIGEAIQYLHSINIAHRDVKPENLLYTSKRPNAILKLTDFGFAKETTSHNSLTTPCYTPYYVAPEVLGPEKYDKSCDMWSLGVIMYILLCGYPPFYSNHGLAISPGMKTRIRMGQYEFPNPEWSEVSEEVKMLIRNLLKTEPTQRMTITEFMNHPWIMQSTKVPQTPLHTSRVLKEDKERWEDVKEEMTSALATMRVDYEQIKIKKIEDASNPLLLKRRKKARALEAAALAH", "assay": "MK2 radiometric kinase assay", "format": "biochemical", "description": "as §1, with “The individual conditions for each radiometric assay are as follows.” left out\nFor the MK2 radiometric assay, 5-10 mU of MK2 was incubated with 50 mM Na b-glycerophosphate pH 7.5, 0.1 mM EGTA, 30 μM KKLNRTLSVA (SEQ ID NO: 34; a substrate peptide for MK2), 10 mM MgAcetate, and 10 μM of [y-^33P-ATP] in a final reaction volume of 25 μl. […] The washed P30 filtermat was dried and its radioactivity was measured by scintillation counter.\n(§3) IC50 values for inhibitor peptides were determined using Millipore's IC50 Profiler Express service. […]"}, "P38MAPK": {"test_system": "P38MAPK", "assay": "p38 MAPK radiometric kinase assay", "format": "biochemical", "details": "peptide 100 μM", "description": "as §1, with “ATP concentrations within 15 μM of the apparent Km for ATP were chosen since an ATP concentration near the Km may allow for the kinases to have the same relative amount of phosphorylation activity. The individual conditions for each radiometric assay are as follows.” left out\nFor the p38 MAPK (p38 Mitogen-Activated Protein Kinase) radiometric assay, 5-10 mU of p38 MAPK was incubated with 25 mM Tris pH 7.5, 0.02 mM EGTA, 0.33 mg/mL myelin basic protein (a substrate for p38 MAPK), 10 mM MgAcetate, and 10 μM of [y-^33P-ATP] in the final reaction volume of 25 μl. […] The washed P30 filtermat was dried and its radioactivity was measured by scintillation counter.\nas §3"}, "PRAK": {"target": "T3, PRAK (Homo sapiens, UniProt Q8IW41)", "T3 construct": "purchased Millipore (KinaseProfiler service)", "T3 sequence (Q8IW41 whole entry, species assumed)": "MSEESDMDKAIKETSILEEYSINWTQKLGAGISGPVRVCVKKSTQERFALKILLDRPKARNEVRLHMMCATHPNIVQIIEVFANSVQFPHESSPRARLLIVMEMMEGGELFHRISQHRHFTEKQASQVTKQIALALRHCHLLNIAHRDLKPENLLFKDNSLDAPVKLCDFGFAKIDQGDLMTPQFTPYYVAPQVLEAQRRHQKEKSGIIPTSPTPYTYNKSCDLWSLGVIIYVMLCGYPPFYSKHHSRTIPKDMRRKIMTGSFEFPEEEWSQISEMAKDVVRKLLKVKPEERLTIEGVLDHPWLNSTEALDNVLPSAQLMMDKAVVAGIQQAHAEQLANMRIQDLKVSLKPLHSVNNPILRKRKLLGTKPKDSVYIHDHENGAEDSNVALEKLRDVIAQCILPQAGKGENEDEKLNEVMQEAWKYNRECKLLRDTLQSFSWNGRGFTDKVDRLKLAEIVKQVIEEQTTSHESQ", "assay": "PRAK radiometric kinase assay", "format": "biochemical", "details": "peptide 100 μM", "description": "as §1, with “follows. […]” for “follows.”\nas §3"}, "MKK6": {"target": "T4, MKK6 (Homo sapiens, UniProt P52564)", "T4 construct": "purchased Millipore (KinaseProfiler service)", "T4 sequence (P52564 whole entry, species assumed)": "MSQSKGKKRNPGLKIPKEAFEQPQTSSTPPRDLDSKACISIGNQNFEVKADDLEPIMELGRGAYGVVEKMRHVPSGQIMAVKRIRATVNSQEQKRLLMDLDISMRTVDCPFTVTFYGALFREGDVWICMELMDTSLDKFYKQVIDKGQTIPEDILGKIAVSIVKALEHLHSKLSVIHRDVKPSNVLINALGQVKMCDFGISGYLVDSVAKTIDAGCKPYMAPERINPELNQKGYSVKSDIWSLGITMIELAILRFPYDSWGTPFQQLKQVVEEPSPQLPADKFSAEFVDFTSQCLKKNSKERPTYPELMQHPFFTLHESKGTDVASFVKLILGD", "assay": "MKK6 radiometric kinase assay", "format": "biochemical", "details": "peptide 100 μM", "description": "as §1\nThe reaction was initiated by adding the MgATP. After incubation for 40 minutes at room temperature, 5 μl of the incubation mix was used to initiate the p38MAPK radiometric assay described above.\nas §2"}},
  "data": [
    {"sequence": "YARAAARQARAKALARQLGVAA [MMI-0100]", "values": [
      {"measurement": "MCP-1 production", "setting": "[1]", "result": "did not stimulate MCP-1 production, even at high doses"},
      {"measurement": "EC apoptosis", "setting": "[2]", "result": "did not induce EC apoptosis at any dose"},
      {"measurement": "morphological changes of EC", "setting": "[3]", "result": "no obvious morphological changes"},
      {"measurement": "Percent Activity, MKK4", "setting": "MKK4", "result": 90, "unit": "%"},
      {"measurement": "inhibition of MK2 activity", "setting": "MK2; concentration used for specificity profiling (Table 2)", "result": "> 95", "unit": "%"},
      {"measurement": "Percent Activity, MK2", "setting": "MK2; peptide 100 μM", "result": "<5", "unit": "%"},
      {"measurement": "Percent Activity, P38MAPK", "setting": "P38MAPK", "result": 60, "unit": "%"},
      {"measurement": "Percent Activity, PRAK", "setting": "PRAK", "result": 100, "unit": "%"},
      {"measurement": "Percent Activity, MKK6", "setting": "MKK6", "result": 50, "unit": "%"}
    ]}
  ]
}
